# Measurements as given in publication PMC8270334, “Design, Sustainable Synthesis and Biological Evaluation of a Novel Dual α2A/5-HT7 Receptor Antagonist with Antidepressant-Like Properties” (Molecules, 2021).
# Experiments:
# human 5-HT7b receptor = target: T1, human 5-HT7b receptor (Homo sapiens, UniProt P34969); assay: radioligand binding, [3H]-5-CT displacement at 5-HT7R in HEK293 cells; settings: read-out: Ki [nM] ± SEM 5-HT7
# T1 construct: expressed in transfected cells; host or cells: HEK293
# T1 sequence (P34969 1-432): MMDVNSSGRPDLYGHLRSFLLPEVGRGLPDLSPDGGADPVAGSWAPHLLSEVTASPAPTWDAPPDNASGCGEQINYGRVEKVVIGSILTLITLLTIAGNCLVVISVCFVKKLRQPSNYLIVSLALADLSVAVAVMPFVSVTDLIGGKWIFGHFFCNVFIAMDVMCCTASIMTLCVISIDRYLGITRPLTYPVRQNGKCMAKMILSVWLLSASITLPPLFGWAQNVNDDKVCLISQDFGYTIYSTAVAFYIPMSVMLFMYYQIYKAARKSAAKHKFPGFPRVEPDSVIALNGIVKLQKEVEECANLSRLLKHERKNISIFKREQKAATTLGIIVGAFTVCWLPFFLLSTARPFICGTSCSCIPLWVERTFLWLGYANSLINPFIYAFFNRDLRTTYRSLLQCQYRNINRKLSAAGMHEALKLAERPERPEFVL
# Experimental: (§1) All experiments were performed using HEK293 cells stably expressing human 5-HT1A, 5-HT6, 5-HT7b, and D2L receptors or CHO-K1 cells with a plasmid containing the human 5-HT2A receptor coding sequence (PerkinElmer, Waltham, MA, USA), according to previously reported procedures. Cells were cultured in 150 cm^2 flasks and, after reaching a 90% confluence, were washed with PBS and the centrifugated (200 g) in PBS containing 0.1 mM EDTA and 1 mM dithiothreitol. Cell pellets were subsequently homogenized (in Ultra Turrax tissue homogenizer) and centrifugated twice (35,000× g for 15 min at 4 °C), with 15 min incubation at 37 °C between the centrifugations. All assays were incubated in dedicated buffers and in a total volume of 200 µL in 96-well microtitre plates for 1 h at 37 °C, except for 5-HT1AR and 5-HT2AR that was incubated for 1 h at room temperature. The process of equilibration is terminated by rapid filtration through Unifilter-96 (PerkinElmer) plates with a 96-well cell harvester and radioactivity retained on the filters was quantified on a Microbeta plate reader (PerkinElmer, USA). For displacement studies, the following assay samples containing the proper radioligand were used: 2.5 nM [^3H]-8-OH-DPAT (PerkinElmer, #NET929001MC) for 5-HT1AR; 1 nM [^3H]-ketanserin (PerkinElmer, #NET791250UC) for 5-HT2AR; 2 nM [^3H]-LSD (PerkinElmer, #NET638250UC) for 5-HT6R; and 0.8 nM [^3H]-5-CT (PerkinElmer, #NET1188U100UC) for 5-HT7R or 2.5 nM [^3H]-raclopride (PerkinElmer, #NET975001MC) for D2LR. Non-specific binding was determined using 10 μM 5-HT for 5-HT1AR and 5-HT7R, 20 μM mianserin for 5-HT2AR, 10 μM methiothepine for 5-HT6R, and 10 μM haloperidol for D2LR. […] Results were expressed as means of at least three separate experiments.
# human 5-HT1A receptor = target: T2, human 5-HT1A receptor (Homo sapiens, UniProt P08908); assay: radioligand binding, [3H]-8-OH-DPAT displacement at 5-HT1AR in HEK293 cells; settings: HEK-293 cells, ± SEM
# T2 construct: expressed in transfected cells; host or cells: HEK293
# T2 sequence (P08908 1-422): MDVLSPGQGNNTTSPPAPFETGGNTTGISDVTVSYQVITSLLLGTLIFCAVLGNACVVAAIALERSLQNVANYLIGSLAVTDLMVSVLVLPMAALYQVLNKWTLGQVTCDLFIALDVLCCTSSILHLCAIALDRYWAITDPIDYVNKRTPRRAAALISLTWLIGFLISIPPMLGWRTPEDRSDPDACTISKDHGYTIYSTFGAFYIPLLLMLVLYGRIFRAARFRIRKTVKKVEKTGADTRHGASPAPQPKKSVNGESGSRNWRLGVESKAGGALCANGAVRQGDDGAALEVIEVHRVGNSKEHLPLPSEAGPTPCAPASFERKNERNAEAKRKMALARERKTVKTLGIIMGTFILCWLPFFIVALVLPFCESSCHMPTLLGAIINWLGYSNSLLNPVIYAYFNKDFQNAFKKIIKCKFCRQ
# Experimental: as §1
# human D2L receptor = target: T3, human D2L receptor (Homo sapiens, UniProt P14416); assay: radioligand binding, [3H]-raclopride displacement at D2LR in HEK293 cells; settings: HEK-293 cells, ± SEM; read-out: Ki [nM] D2
# T3 construct: expressed in transfected cells; host or cells: HEK293
# T3 sequence (P14416 whole entry): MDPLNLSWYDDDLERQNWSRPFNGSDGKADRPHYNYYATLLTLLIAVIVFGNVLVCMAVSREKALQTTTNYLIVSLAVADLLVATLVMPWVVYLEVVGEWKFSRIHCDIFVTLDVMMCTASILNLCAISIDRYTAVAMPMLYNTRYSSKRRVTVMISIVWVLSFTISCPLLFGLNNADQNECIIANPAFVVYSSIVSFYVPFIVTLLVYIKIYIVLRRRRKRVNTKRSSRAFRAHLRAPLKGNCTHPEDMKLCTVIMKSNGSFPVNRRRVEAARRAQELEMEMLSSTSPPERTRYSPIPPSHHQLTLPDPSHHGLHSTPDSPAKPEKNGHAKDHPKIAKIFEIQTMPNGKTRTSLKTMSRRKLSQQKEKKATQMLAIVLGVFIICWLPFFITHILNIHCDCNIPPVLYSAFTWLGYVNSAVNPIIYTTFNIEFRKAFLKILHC
# Experimental: as §1
# 5-HT7R = target: T4, 5-HT7R (Homo sapiens, UniProt P34969); assay: intrinsic activity at 5-HT7R, LANCE cAMP assay in HEK-293 cells, 5-CT stimulated; type: cell-based; settings: read-out: 5-HT7 Kb
# T4 construct: expressed in transfected cells; host or cells: HEK-293 (prepared with Lipofectamine 2000, G418 selection)
# T4 sequence (P34969 1-432): as the sequence (P34969 1-432) above
# Experimental: Cells (prepared with the use of Lipofectamine 2000) were maintained at 37 °C in a humidified atmosphere with 5% CO2 and grown in Dulbeco’s Modifier Eagle Medium containing 10% dialyzed fetal bovine serum and […] G418 sulphate. For functional experiments, cells were subcultured in 25 cm diameter dishes, grown to 90% confluence, washed twice with pre-warmed to 37 °C phosphate buffered saline (PBS) and were centrifuged for 5 min (160× g). The supernatant was aspirated, then the cell pellet was resuspended in stimulation buffer (1 × HBSS, 5 mM HEPES, 0.5 mM IBMX, 0.1% BSA). The cAMP level was measured using the LANCE cAMP detection kit (PerkinElmer), according to the manufacturer’s directions. […] Cells (5 µL) were incubated with compounds (5 µL) for 30 min at room temperature in 384-well white opaque microtiter plate. After incubation, the reaction was stopped, and cells were lysed by the addition of 10 µL working solution (5 µL Eu-cAMP and 5 µL ULight-anti-cAMP). The assay plate was incubated for 1 h at room temperature. Time-resolved fluorescence resonance energy transfer (TR-FRET) was detected by an Infinite M1000 Pro (Tecan) using instrument settings from LANCE cAMP detection kit manual. Kb values were calculated from the Cheng–Prusoff equation specific for the analysis of functional inhibition curves: Kb = IC50/(1+A/EC50) where A is the agonist concentration, IC50 is the concentration of the antagonist producing a 50% reduction in the response to the agonist, and EC50 is the agonist concentration which causes half of the maximal response.
# 5-HT1AR = target: T5, 5-HT1AR (Homo sapiens, UniProt P08908); assay: functional profiling at 5-HT1AR, cAMP-based assays (Eurofins); type: cell-based; settings: cAMP-based assay; for 5-HT1AR antagonist property: at 1 µM; for EC50: read-out: 5-HT1AR agonist activity EC50
# T5 construct: Eurofins Scientific, France
# T5 sequence (P08908 1-422): T2 sequence (P08908 1-422)
# Albino Swiss mice = assay: spontaneous locomotor activity; type: in vivo; settings: ip
# Experimental: Adult male Albino Swiss mice (CD-1, 8 weeks old, 25–30 g: Jagiellonian University Medical College, Krakow, Poland) were used in the study. Animals were housed in groups of 8 in a transparent plastic cage (382 × 220 × 150 mm) at room temperature (22 ± 2 °C), on a 12 h light/dark cycle with ad libitum access to food and water. Mice were handled for one week before starting the experimental procedures. The separate groups of animals were used in the forced swim test and in the locomotor studies. All studies were approved by the Institutional Animal Care and Ethics Committee of the Jagiellonian University (approval no.: 80/2015).
# Tested compounds were dissolved with 1% Tween 80. […] The control animals were given ip injections of the 2% DMSO in 1% Tween 80 (vehicle). The volume of vehicle or drug solutions was 10 mL/kg.
# Locomotor activity was recorded with an Opto M3 multichannel activity monitor, photoresistor actometers connected to a counter for the recording of light-beam interruptions (MultiDevice Software v1.3, Columbus Instruments, Columbus, OH, USA). The mice, after being placed into the cages individually, had their activity evaluated between the 2nd and the 6th minute. The chosen time period corresponded with the time interval considered in the FST. Spontaneous locomotor activity was evaluated as the distance travelled plus the movements of climbing by animals.
# [1] = doses effective in the FST (6: 4, 8 mg/kg; mirtazapine: 16 mg/kg)
Structure (SMILES),Ki (human 5-HT7b receptor) [nM],Ki (human 5-HT1A receptor) [nM],Ki (human D2L receptor) [nM],Kb (5-HT7R) [nM],5-HT1AR antagonist property (5-HT1AR),EC50 (5-HT1AR) [µM],influence on spontaneous locomotor activity (sedation) (Albino Swiss mice; [1]),influence on spontaneous locomotor activity (sedation) (Albino Swiss mice; 1 mg/kg),influence on spontaneous locomotor activity (sedation) (Albino Swiss mice; higher doses (above 1 mg/kg))
"CC1(C)Cc2cccc(OCCN3CCC(NS(=O)(=O)c4ccc(F)cc4)CC3)c2O1 [Compound 6, 4-Fluoro-N-{1-[2-(2,2-dimethyl-2,3-dihydrobenzofuran-7-yloxy)ethyl]piperidin-4-yl} benzenesulfonamide]",35 ± 22,221 ± 25,327 ± 29,186 ± 37,no antagonist property,> 4,induced sedation,–,–
"CC1(C)Cc2cccc(OCCN3CCC(NS(=O)(=O)c4cc(Cl)ccc4F)CC3)c2O1 [Compound 8, 5-Chloro-2-fluoro-N-{1-[2-(2,2-dimethyl-2,3-dihydrobenzofuran-7-yloxy)ethyl]piperidin-4-yl}benzenesulfonamide]",30 ± 11,260 ± 29,388 ± 37,141 ± 43,no antagonist property,> 4,no influence on the spontaneous locomotor activity,–,–
"CC1(C)Cc2cccc(OCCN3CCC(NS(=O)(=O)c4cncc5ccccc45)CC3)c2O1 [Compound 13, 4-Isoquinoline-N-{1-[2-(2,2-dimethyl-2,3-dihydrobenzofuran-7-yloxy)ethyl]piperidin-4-yl}sulfonamide]",91 ± 25,260 ± 18,326 ± 25,155 ± 30,no antagonist property,> 4,–,without affecting locomotor activity,caused sedation
